Reference: patent EP1202975B1, “SUBSTITUTED POLYCYCLIC ARYL AND HETEROARYL PYRAZINONES USEFUL FOR SELECTIVE INHIBITION OF THE COAGULATION CASCADE” (Pharmacia Corporation, priority 1999, dated 2000)
Read-outs that look alike come from different tables or passages of the source.

How the values were obtained:
[1] = target: T1, TF-VIIa (Homo sapiens, UniProt P08709); assay: TF-VIIa Assay; type: biochemical
T1 construct: 2nM recombinant human factor VIIa; purchased American Diagnostica, Greenwich CT; host or cells: soluble TF made in house in E. coli

[2] = target: Human factor Xa (Homo sapiens, UniProt P00742); assay: Xa Assay; conditions: for IC50 or % Inhibition Factor Xa (30 µM): % inhibition at 30 µM
[3] = cells given as a plain number (IC50); read-out: IC50 or % Inhibition TF-VIIa (30 µM)
[4] = read-out: IC50 or % Inhibition TF-VIIa (30 µM); cells given as a plain number (IC50)
[5] = read-out: IC50 or % Inhibition Factor Xa (30 µM), cells given as a plain number (IC50)

Sequence of Human factor Xa (P00742 235-488 limits assumed): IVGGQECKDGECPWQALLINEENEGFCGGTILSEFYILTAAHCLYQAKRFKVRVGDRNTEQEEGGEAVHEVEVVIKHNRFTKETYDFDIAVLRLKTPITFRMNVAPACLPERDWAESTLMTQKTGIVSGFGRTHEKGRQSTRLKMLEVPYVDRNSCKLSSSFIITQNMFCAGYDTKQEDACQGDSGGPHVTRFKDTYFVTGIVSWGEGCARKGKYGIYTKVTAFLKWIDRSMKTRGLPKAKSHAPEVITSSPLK
Sequence of Human factor Xa (P00742 41-179 limits assumed): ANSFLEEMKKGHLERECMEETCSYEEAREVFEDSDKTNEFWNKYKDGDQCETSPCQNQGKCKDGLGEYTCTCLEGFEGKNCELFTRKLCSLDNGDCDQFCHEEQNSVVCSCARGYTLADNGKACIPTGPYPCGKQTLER
T1 sequence (P08709 213-466 limits assumed): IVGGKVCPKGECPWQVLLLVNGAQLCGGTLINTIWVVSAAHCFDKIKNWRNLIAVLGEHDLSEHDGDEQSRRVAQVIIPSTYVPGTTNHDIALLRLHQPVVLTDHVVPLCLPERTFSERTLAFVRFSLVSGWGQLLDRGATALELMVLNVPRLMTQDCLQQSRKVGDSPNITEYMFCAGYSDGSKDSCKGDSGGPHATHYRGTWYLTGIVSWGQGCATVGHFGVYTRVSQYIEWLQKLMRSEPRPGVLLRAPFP
T1 sequence (P08709 61-212 limits assumed): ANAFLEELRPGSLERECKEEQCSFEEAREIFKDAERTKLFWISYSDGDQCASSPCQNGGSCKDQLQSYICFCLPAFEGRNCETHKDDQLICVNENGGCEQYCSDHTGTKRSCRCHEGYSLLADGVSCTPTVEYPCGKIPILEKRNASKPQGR
T1 sequence (P13726 33-251 partner limits assumed): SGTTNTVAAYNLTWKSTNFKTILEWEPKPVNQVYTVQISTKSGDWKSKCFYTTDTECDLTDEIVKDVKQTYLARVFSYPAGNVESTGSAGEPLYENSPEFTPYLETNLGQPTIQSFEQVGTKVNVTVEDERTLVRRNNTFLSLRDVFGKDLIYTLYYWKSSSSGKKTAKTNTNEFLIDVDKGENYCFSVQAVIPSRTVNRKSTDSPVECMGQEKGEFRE

Row | Compound | IC50 [1, 3] [µM] | IC50 or % Inhibition Factor Xa (30 µM) [2] | IC50 [1, 4] [µM] | IC50 [2, 5] [µM] | further results
1 | N=C(N)NCCNc1nc(Cl)c(-c2ccccc2)n(CC(=O)NCc2ccc(C(=N)N)cc2)c1=O [Example 48] | 0.57 | 20% | – | – | –
2 | N=C(N)c1ccc(CNC(=O)Cn2c(-c3cccc(N)c3)c(Cl)nc(NC3CCC3)c2=O)c(F)c1 [1543-39] | – | 14% | – | – | IC50 ([1]; cells without % sign: IC50; read-out: IC50 or % Inhibition TF-VIIa (30 µM)): 0.04 µM
3 | C[C@H](Nc1nc(Cl)c(-c2cccc(N)c2)n(CC(=O)NCc2ccc(C(=N)N)cc2)c1=O)C1CCCCC1 [1526-29] | – | – | 0.12 | > 30 | –
4 | N=C(N)c1ccc(CNC(=O)Cn2c(-c3ccccc3)c(Cl)nc(NCc3ccc(OC(F)(F)F)cc3)c2=O)cc1 [1507-04] | – | – | 29.5 | > 30 | –
5 | N=C(N)NCCCCNC(=O)Cn1c(-c2ccccc2)cnc(NCCc2ccccc2)c1=O [Example 12] | > 100 | – | – | – | IC50 [2]: > 100 µM
6 | N=C(N)c1ccc(CNC(=O)Cn2c(-c3cccc(N)c3)c(Cl)nc(NCCc3cccc(Cl)c3)c2=O)cc1 [compound 87] | 0.07 | – | – | > 30 | –
7 | N=C(N)c1ccc(CNC(=O)Cn2c(-c3cccc(Br)c3)c(Cl)nc(NCc3ccccc3)c2=O)cc1 [1515-10] | – | – | 5.7 | > 30 | –
8 | COc1cccc(CCNc2nc(Cl)c(-c3ccccc3)n(CC(=O)NCc3ccc(C(=N)N)cc3)c2=O)c1 [1507-12] | – | – | 6.7 | > 30 | –
9 | COc1cccc(-c2c(Cl)nc(NCc3ccccc3)c(=O)n2CC(=O)NCc2ccc(C(=N)N)cc2)c1 [1515-05] | – | – | 4 | > 30 | –
10 | CC(C)NC(=O)Nc1ncc(-c2ccccc2)n(CC(=O)NCc2ccc(C(=N)N)cc2)c1=O [Example 109] | 6.17 | 10% | – | – | –
11 | N=C(N)c1ccc(CNC(=O)Cn2c(-c3ccccc3)c(Cl)nc(NC3CCCC3)c2=O)cc1 [1507-25] | – | – | 1.6 | > 30 | –
12 | CC(C)Nc1nc(Cl)c(-c2ccc(Cl)nc2)n(CC(=O)NCc2ccc(C(=N)N)cc2F)c1=O [compound 74] | 3.25 | 13% | – | – | –
13 | CNc1cccc(-c2c(Cl)nc(NC(C)C)c(=O)n2CC(=O)NCc2ccc(C(=N)N)cc2)c1 [Example 104] | 1.2 | – | – | – | IC50 [2]: > 30 µM
14 | N=C(N)c1ccc(CNC(=O)Cn2c(-c3cccc(F)c3)c(Cl)nc(NCCc3ccccc3)c2=O)cc1 [1515-33] | 2.3 | – | – | > 30 | –
15 | N=C(N)c1ccc(CNC(=O)Cn2c(-c3ccccc3)c(Cl)nc(NCCCCN3CCCC3)c2=O)cc1 [1522-42] | – | – | 1 | > 30 | –
16 | COCC(C)Nc1nc(Cl)c(-c2cccc(N)c2)n(CC(=O)NCc2ccc(C(=N)N)cc2)c1=O (stereo not shown) [1526-05] | – | – | 0.1 | > 30 | –
17 | N=C(N)c1ccc(CNC(=O)Cn2c(-c3ccccc3)c(Cl)nc(NC3CCS(=O)(=O)C3)c2=O)cc1 (stereo not shown) [1507-36] | 13.8 | 0% | – | – | –
18 | N=C(N)c1ccc(CNC(=O)Cn2c(Cc3ccccc3)cnc(NCCc3ccccc3)c2=O)cc1 [Example 2] | 5 | – | – | – | IC50 [2]: > 100 µM
19 | COc1cccc(-c2c(Cl)nc(NC3CCC3)c(=O)n2CC(=O)NCc2ccc(C(=N)N)cc2)c1 [1515-17] | – | – | 4.4 | > 30 | –
20 | N=C(N)c1ccc(CNC(=O)Cn2c(-c3cccc(N)c3)c(Cl)nc(NCc3ccccc3)c2=O)cc1 [compound 88] | 0.1 | – | – | > 30 | –
21 | N=C(N)c1ccc(CNC(=O)Cn2c(-c3cccc(N)c3)c(Cl)nc(N[C@@H]3CC4CCC3C4)c2=O)cc1 (stereo partly shown) [1526-30] | – | – | 0.08 | > 30 | –
22 | CC(C)(C)CCNc1nc(Cl)c(-c2ccccc2)n(CC(=O)NCc2ccc(C(=N)N)cc2)c1=O [1517-41] | 2.2 | 0% | – | – | –
23 | COc1ccc(CCNc2nc(Cl)c(-c3ccccc3)n(CC(=O)NCc3ccc(C(=N)N)cc3)c2=O)cc1 [1507-11] | – | – | 3 | > 30 | –
24 | N=C(N)c1ccc(CNC(=O)Cn2c(-c3ccc4ccccc4c3)c(Cl)nc(NCCc3ccccc3)c2=O)cc1 [compound 82] | 20 | 32%@30 | – | – | –
25 | N=C(N)c1ccc(CNC(=O)Cn2c(-c3cccc(Br)c3)c(Cl)nc(NC3CCC3)c2=O)cc1 [1515-22] | 4.2 | – | – | > 30 | –

Row | Compound | IC50 [1, 3] [µM] | IC50 or % Inhibition Factor Xa (30 µM) [2] | IC50 [1, 4] [µM] | IC50 [2, 5] [µM] | further results
26 | N=C(N)c1ccc(CNC(=O)Cn2c(-c3cccc(C(F)(F)F)c3)c(Cl)nc(NCCc3ccccc3)c2=O)cc1 [1515-25] | 2.9 | – | – | > 30 | –
27 | CC[C@@H](C)Nc1nc(Cl)c(-c2cccc(N)c2)n(CC(=O)NCc2ccc(C(=N)N)cc2)c1=O [1526-16] | – | – | 0.04 | > 30 | –
28 | CC(C)Nc1nc(Cl)c(-c2cc(N)ccc2F)n(CC(=O)NCc2ccc(C(=N)N)cc2F)c1=O [compound 73] | 0.03 | 0% | – | – | –
29 | COc1ccc(-c2cnc(NCCc3ccccc3)c(=O)n2CC(=O)NCCCCNC(=N)N)cc1 [Example 14] | > 100 | – | – | – | IC50 [2]: > 100 µM
30 | CN(C)c1cccc(-c2c(Cl)nc(NCCc3ccccc3)c(=O)n2CC(=O)NCc2ccc(C(=N)N)cc2)c1 [Example 103] | 0.3 | 11%@30 | – | – | –
31 | N=C(N)c1ccc(CNC(=O)Cn2c(-c3ccc(F)cc3)c(Cl)nc(NC3CCC3)c2=O)cc1 [1515-19] | – | – | 24.2 | > 30 | –
32 | N=C(N)c1ccc(CNC(=O)Cn2c(-c3ccccc3)c(Cl)nc(NCCc3ccncc3)c2=O)cc1 [Example 19] | 0.8 | 22%@30 | – | – | –
33 | COc1ccc(CNc2nc(Cl)c(-c3ccccc3)n(CC(=O)NCc3ccc(C(=N)N)cc3)c2=O)cc1 [1507-13] | – | – | 26.7 | > 30 | –
34 | COc1ccccc1-c1c(Cl)nc(NCCc2ccccc2)c(=O)n1CC(=O)NCc1ccc(C(=N)N)cc1 [1515-26] | 1.6 | – | – | > 30 | –
35 | Cc1cccc(-c2cnc(NCCc3ccccc3)c(=O)n2CC(=O)NCc2ccc(C(=N)N)cc2)c1 [compound 85] | 0.88 | 42%@30 | – | – | –
36 | CCCNc1nc(Cl)c(-c2cccc(N)c2)n(CC(=O)NCc2ccc(C(=N)N)cc2)c1=O [1526-13] | – | – | 0.06 | > 30 | –
37 | N=C(N)c1ccc(CNC(=O)Cn2c(-c3ccc(-c4ccccc4)cc3)c(Cl)nc(NCCc3cccnc3)c2=O)cc1 [Example 21] | – | 21%@30 | – | – | IC50 or % Inhibition TF-VIIa (30 µM) ([1]; % inhibition at 30 µM): 8%@30
38 | N=C(N)c1ccc(CNC(=O)Cn2c(-c3cccc4ccccc34)c(Cl)nc(NCCc3ccccc3)c2=O)cc1 [compound 80] | 1.29 | 29%@30 | – | – | –
39 | N=C(N)c1ccc(CNC(=O)Cn2c(-c3ccccc3)c(Cl)nc(NC3CCCCCC3)c2=O)cc1 [1507-29] | 5.8 | 4% | – | – | –
40 | CC(C)CCNc1nc(Cl)c(-c2ccccc2)n(CC(=O)NCc2ccc(C(=N)N)cc2)c1=O [1517-40] | 1.2 | 0% | – | – | –
41 | N=C(N)c1ccc(CNC(=O)Cn2c(-c3cccc(N)c3)c(Cl)nc(NC3CC3)c2=O)cc1 [1526-01] | – | – | 0.02 | > 30 | –
42 | CC(C)Nc1nc(Cl)c(-c2cccc(N)c2)n(CC(=O)NCc2ccc(C(=N)N)s2)c1=O [Example 55] | 0.15 | 0% | – | – | –
43 | CC(C)(C)Nc1nc(Cl)c(-c2cccc(N)c2)n(CC(=O)NCc2ccc(C(=N)N)cc2)c1=O [1526-07] | – | – | 0.08 | > 30 | –
44 | N=C(N)c1ccc(CNC(=O)Cn2c(-c3ccc(-c4ccccc4)cc3)c(Cl)nc(NCCc3ccc(Cl)cc3)c2=O)cc1 [Example 22] | – | 13%@30 | – | – | IC50 or % Inhibition TF-VIIa (30 µM) ([1]; % inhibition at 30 µM): 0%@30
45 | Nc1cccc(-c2c(Cl)nc(NC3CCC3)c(=O)n2CC(=O)NCc2ccccc2)c1 [compound 99] | – | 8%@30 | – | – | IC50 or % Inhibition TF-VIIa (30 µM) ([1]; % inhibition at 30 µM): 6%@30
46 | N=C(N)c1ccc(CNC(=O)Cn2c(-c3ccccc3)c(Cl)nc(NCc3ccc(F)cc3F)c2=O)cc1 [1507-26] | – | – | 20.5 | > 30 | –
47 | N=C(N)c1ccc(CNC(=O)Cn2c(-c3cccc(Cl)c3)c(Cl)nc(NCc3ccccc3)c2=O)cc1 [Example 23] | 1.7 | 38%@30 | – | – | –
48 | CC(C)CCNc1nc(Cl)c(-c2ccccc2)n(CC(=O)NCc2ccc(C(=N)N)cc2)c1=O [1522-14] | 0.84 | – | – | > 30 | –
49 | N=C(N)c1ccc(CNC(=O)Cn2c(-c3cccs3)c(Cl)nc(NCc3ccccc3)c2=O)cc1 [1515-06] | – | – | 1.7 | > 30 | –
50 | N=C(N)c1ccc(CNC(=O)Cn2c(-c3ccccc3F)c(Cl)nc(NCc3ccccc3)c2=O)cc1 [1515-11] | – | – | 4.3 | > 30 | –
